62 targets from the supplement of paper PMC6411743 can be followed below.

A value given as a limit tells only on which side of the number the result lay.

Compound in this test: Nc1ncnc2c1ncn2[C@@H]1O[C@H](COP(=O)(O)OP(=O)(O)OP(=O)(O)O)[C@@H](O)[C@H]1O [adenosine triphosphate]
Put plainly: pEC50 of ATP-induced change in protein thermal stability (2D-TPP). The essentials: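 Each of three independent experiments used Jurkat crude lysate given five concentrations including vehicle (10 min, room temperature), followed by 3 min at one of 12 temperatures from 42 to 63.9 °C and NP40 with benzonase (60 min, 4 °C). TMT LC-MS/MS quantified soluble protein after ultracentrifugation, expressed as fold changes against vehicle at each temperature with median normalisation. For pEC50, dose-response curves were fitted per replicate over adjacent temperature pairs, and hits were called through permutation-based false discovery rate control.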
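Note: lysate dosed with Na-ATP at 0 0.005 0.05 0.5 and 2 mM.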

Sequence of UniProt Q14651 (Q14651 whole entry): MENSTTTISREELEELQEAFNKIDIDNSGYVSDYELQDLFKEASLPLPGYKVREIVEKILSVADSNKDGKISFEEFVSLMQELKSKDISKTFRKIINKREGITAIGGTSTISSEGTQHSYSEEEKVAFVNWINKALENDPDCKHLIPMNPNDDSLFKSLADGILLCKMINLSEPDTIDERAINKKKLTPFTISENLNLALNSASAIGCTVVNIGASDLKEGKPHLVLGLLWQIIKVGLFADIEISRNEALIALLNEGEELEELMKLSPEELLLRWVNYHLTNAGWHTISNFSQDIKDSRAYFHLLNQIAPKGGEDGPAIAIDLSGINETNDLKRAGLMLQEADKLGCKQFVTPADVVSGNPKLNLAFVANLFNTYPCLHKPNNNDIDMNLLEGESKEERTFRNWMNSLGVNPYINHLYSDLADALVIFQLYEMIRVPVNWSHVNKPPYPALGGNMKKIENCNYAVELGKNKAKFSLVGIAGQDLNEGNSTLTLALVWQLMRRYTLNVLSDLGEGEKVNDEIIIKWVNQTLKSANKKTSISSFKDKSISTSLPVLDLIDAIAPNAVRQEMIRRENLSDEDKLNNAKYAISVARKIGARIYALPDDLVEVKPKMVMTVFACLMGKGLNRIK
Sequence of UniProt Q9UBV8 (Q9UBV8 whole entry): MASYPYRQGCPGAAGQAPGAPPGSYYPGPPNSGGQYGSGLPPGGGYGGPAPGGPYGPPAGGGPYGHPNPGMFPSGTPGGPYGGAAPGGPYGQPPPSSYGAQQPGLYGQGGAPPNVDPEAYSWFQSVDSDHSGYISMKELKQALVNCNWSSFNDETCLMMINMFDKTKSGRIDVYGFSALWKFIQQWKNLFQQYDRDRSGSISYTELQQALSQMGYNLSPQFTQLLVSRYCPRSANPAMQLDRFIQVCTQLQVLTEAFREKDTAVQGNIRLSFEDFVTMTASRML
Sequence of UniProt O75340 (O75340 whole entry): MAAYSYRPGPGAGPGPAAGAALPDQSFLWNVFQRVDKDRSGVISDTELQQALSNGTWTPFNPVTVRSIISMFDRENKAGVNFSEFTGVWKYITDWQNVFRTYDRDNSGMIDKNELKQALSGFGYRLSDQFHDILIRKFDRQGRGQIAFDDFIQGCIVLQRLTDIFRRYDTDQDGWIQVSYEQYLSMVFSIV
Sequence of UniProt P00558 (P00558 whole entry): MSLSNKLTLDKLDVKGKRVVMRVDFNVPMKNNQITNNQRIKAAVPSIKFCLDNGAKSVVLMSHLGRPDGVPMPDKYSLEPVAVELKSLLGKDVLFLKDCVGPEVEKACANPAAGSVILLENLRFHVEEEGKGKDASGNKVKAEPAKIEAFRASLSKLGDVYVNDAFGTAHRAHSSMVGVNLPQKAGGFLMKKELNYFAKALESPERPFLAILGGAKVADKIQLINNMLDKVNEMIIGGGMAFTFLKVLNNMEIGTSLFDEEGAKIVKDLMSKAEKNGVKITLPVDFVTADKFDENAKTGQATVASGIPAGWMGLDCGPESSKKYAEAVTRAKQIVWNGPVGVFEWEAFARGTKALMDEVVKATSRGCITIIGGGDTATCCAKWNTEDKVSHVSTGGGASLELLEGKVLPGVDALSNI
Sequence of UniProt P48426 (P48426 whole entry): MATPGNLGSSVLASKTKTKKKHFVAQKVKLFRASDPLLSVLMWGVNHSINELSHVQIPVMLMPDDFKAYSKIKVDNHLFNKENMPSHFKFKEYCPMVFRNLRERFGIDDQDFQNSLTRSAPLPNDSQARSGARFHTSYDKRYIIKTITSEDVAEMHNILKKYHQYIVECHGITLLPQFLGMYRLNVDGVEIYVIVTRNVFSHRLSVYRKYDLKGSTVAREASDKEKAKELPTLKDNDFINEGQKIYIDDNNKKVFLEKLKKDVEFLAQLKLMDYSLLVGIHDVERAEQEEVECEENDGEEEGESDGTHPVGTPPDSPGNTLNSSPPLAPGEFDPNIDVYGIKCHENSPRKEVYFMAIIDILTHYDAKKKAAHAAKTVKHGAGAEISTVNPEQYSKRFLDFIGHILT
Sequence of UniProt Q5JRX3 (Q5JRX3 whole entry): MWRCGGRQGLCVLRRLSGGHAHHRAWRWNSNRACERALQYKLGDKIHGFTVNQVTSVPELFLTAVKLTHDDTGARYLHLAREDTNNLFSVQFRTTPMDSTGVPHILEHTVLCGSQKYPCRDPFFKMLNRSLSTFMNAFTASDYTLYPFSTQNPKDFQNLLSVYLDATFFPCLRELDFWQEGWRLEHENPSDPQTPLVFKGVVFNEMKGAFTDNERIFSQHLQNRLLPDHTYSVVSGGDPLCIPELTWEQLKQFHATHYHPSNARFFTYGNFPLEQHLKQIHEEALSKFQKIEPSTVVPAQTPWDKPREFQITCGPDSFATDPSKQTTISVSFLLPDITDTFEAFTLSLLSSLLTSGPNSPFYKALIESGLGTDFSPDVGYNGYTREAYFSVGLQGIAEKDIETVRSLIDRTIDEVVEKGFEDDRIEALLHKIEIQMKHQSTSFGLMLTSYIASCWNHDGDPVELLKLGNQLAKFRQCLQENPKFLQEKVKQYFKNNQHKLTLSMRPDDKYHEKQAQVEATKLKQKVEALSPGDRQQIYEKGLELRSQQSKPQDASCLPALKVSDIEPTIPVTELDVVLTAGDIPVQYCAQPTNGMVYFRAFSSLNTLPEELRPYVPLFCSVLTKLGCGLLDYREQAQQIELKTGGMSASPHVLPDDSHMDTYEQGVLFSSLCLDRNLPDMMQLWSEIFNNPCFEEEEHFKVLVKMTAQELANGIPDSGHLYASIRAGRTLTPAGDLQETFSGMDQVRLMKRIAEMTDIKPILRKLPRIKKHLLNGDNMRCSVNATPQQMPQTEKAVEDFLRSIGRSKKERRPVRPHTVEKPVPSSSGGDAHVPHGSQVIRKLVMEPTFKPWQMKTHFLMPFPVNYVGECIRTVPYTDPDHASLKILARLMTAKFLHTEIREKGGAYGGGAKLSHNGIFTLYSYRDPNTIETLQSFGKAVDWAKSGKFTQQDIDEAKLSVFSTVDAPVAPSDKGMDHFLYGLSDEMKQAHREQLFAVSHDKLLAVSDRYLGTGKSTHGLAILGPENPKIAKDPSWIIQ
Sequence of UniProt Q13608 (Q13608 whole entry): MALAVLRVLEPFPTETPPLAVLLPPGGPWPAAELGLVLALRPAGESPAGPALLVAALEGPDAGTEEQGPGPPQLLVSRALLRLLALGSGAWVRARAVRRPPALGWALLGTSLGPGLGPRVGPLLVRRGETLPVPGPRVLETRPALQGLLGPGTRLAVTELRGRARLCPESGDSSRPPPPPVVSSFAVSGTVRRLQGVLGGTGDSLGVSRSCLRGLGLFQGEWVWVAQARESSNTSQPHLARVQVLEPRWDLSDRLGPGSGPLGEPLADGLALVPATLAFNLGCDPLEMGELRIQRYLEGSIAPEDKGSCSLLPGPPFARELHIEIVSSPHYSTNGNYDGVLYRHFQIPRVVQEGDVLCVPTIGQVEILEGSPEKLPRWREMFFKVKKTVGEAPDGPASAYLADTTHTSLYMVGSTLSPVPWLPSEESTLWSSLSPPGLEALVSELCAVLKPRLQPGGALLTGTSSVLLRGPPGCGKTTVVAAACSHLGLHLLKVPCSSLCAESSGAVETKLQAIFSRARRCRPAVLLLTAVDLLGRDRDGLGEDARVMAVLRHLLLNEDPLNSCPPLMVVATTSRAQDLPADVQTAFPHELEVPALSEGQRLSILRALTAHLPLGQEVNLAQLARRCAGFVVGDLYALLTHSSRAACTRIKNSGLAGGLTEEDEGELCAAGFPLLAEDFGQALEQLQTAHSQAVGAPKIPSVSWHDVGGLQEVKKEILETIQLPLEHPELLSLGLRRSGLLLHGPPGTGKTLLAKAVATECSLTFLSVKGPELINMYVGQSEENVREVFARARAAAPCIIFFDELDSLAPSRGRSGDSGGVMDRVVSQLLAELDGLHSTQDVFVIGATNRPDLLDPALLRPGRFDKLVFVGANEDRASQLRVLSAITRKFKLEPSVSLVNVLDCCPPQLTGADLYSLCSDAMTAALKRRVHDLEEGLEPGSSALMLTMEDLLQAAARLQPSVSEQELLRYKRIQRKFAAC
Sequence of UniProt Q86TB9 (Q86TB9 whole entry): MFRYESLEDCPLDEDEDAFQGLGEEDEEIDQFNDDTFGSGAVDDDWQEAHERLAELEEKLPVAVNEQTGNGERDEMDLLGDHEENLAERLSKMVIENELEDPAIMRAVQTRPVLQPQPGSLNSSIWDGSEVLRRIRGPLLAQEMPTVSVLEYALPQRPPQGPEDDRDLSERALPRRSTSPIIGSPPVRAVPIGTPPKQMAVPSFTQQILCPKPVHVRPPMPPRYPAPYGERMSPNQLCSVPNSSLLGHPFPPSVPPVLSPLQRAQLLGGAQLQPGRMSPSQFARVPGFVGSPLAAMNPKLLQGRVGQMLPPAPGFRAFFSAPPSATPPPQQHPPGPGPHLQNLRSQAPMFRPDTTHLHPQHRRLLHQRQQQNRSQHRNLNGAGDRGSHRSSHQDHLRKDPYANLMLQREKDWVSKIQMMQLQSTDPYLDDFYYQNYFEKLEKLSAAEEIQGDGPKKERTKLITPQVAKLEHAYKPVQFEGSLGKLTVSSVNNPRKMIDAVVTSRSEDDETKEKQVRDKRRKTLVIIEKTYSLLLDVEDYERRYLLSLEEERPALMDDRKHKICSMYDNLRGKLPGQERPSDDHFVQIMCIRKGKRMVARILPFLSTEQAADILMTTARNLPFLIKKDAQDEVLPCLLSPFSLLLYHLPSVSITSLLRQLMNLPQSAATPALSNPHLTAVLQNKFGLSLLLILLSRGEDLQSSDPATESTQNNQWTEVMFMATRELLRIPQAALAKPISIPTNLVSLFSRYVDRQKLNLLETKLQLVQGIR
Sequence of UniProt P12004 (P12004 whole entry): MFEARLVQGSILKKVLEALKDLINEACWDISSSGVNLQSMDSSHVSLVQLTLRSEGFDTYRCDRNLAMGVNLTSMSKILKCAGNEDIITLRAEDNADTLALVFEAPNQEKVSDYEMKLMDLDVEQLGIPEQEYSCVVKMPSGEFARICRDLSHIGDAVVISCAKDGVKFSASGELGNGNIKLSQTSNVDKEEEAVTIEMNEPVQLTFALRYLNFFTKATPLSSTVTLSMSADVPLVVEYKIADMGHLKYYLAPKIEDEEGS

For orientation: pEC50 means the EC50 on a negative log10 scale, so that one unit is a factor of ten. For “OXA1L (effect direction: stabilized) (UniProt Q15070)”, the pEC50 is under 2.7. With “PA2G4 (effect direction: destabilized) (UniProt Q9UQ80)”, the pEC50 stood at 3.17. With “PABPN1 (effect direction: destabilized) (UniProt Q86U42)”, the pEC50 was 3.23. Then “PACSIN2 (effect direction: stabilized) (UniProt Q9UNF0)”, with under 2.7; and “PAF1 (effect direction: stabilized) (UniProt Q8N7H5)”, with 3.1; and “PANK2 (effect direction: stabilized) (UniProt Q9BZ23)”, with 3.02. Turning to “PAPOLA (effect direction: stabilized) (UniProt P51003)”, the pEC50 came to 2.95.

On to “PAPSS1 (effect direction: stabilized) (UniProt O43252)”, for which the pEC50 was 3.65.

With “PARN (effect direction: stabilized) (UniProt O95453)”, the pEC50 is under 2.7.

Regarding “PATL1 (effect direction: stabilized) (UniProt Q86TB9)”, the pEC50 came to 2.83. Turning to “PC (effect direction: stabilized) (UniProt P11498)”, the pEC50 was 3.45. Regarding “PCID2 (effect direction: stabilized) (UniProt Q5JVF3)”, the negative logarithm of the EC50 (pEC50) is 3.02. In the case of “PCNA (effect direction: stabilized) (UniProt P12004)”, the pEC50 is under 2.7.

As to “PCYT2 (effect direction: stabilized) (UniProt Q99447)”, the pEC50 is under 2.7. For the target “PDCD2 (effect direction: stabilized) (UniProt Q16342)”, the pEC50 is 3.06. For “PDCD5 (effect direction: destabilized) (UniProt O14737)”, the pEC50 worked out at 3.52. As for “PDCD6 (effect direction: destabilized) (UniProt O75340)”, the pEC50 is under 2.7. Then “PDCD10 (effect direction: stabilized) (UniProt Q9BUL8)”, with 3.17; and “PDCL3 (effect direction: destabilized) (UniProt Q9H2J4)”, with 4.16; and “PDK3 (effect direction: stabilized) (UniProt Q15120)”, with 2.84.

On to “PEF1 (effect direction: destabilized) (UniProt Q9UBV8)”, for which the pEC50 came out at 2.86. As for “PELO (effect direction: stabilized) (UniProt Q9BRX2)”, the pEC50 came out at 3.17.

With “PEPD (effect direction: destabilized) (UniProt P12955)”, the pEC50 was under 2.7. Regarding “PES1 (effect direction: destabilized) (UniProt O00541)”, the negative-log EC50 (pEC50) was 3.49.

Turning to “PEX6 (effect direction: stabilized) (UniProt Q13608)”, the negative logarithm of the EC50 (pEC50) came out at 4.03. “PFN1 (effect direction: stabilized) (UniProt P07737)”: the pEC50 is 3.57. In the case of “PFN2 (effect direction: stabilized) (UniProt P35080)”, the pEC50 amounted to 3.51. On to “PGAM1 (effect direction: destabilized) (UniProt P18669)”, for which the pEC50 was under 2.7. For the target “PGD (effect direction: stabilized) (UniProt P52209)”, the pEC50 was under 2.7.

As to “PGGT1B (effect direction: stabilized) (UniProt P53609)”, the pEC50 is 3.47.

Consider “PGK1 (effect direction: stabilized) (UniProt P00558)”, for which the pEC50 turned out to be 3.75. As for “PGM1 (effect direction: destabilized) (UniProt P36871)”, the negative logarithm of the EC50 (pEC50) was under 2.7.

Consider “PGP (effect direction: destabilized) (UniProt A6NDG6)”, for which the pEC50 is under 2.7. On to “PHACTR4 (effect direction: stabilized) (UniProt Q8IZ21)”, for which the pEC50 came to 4.03. Under “PHGDH (effect direction: stabilized) (UniProt O43175)” stands under 2.7; under “PHKA1 (effect direction: stabilized) (UniProt P46020)”, 2.87; under “PHKG2 (effect direction: stabilized) (UniProt P15735)”, 2.96. Consider “PI4K2A (effect direction: stabilized) (UniProt Q9BTU6)”, for which the pEC50 was 3.54. Turning to “PIP4K2A (effect direction: stabilized) (UniProt P48426)”, the pEC50 turned out to be 2.72. Turning to “PITRM1 (effect direction: stabilized) (UniProt Q5JRX3)”, the negative logarithm of the EC50 (pEC50) amounted to 3.09. Then “PLCG1 (effect direction: stabilized) (UniProt P19174)”, with 2.94. As to “PLEKHA1 (effect direction: stabilized) (UniProt Q9HB21)”, the pEC50 worked out at 3.32. Regarding “PLEKHF2 (effect direction: stabilized) (UniProt Q9H8W4)”, the pEC50 turned out to be 3.17. As to “PLK1 (effect direction: stabilized) (UniProt P53350)”, the pEC50 came to 3.69. As to “PLS1 (effect direction: stabilized) (UniProt Q14651)”, the pEC50 is under 2.7. In the case of “PM20D2 (effect direction: stabilized) (UniProt Q8IYS1)”, the pEC50 is 2.86. “PMS2 (effect direction: stabilized) (UniProt P54278)”: the negative logarithm of the EC50 (pEC50) turned out to be 3.21. With “PMVK (effect direction: stabilized) (UniProt Q15126)”, the pEC50 came out at 3.58. As for “POLG2 (effect direction: destabilized) (UniProt Q9UHN1)”, the negative logarithm of the EC50 (pEC50) was 3.26. Then “POLR2C (effect direction: destabilized) (UniProt P19387)”, with 3.72; and “POLR2E (effect direction: destabilized) (UniProt P19388)”, with 3.45.

“POP1 (effect direction: destabilized) (UniProt Q99575)”: the pEC50 was under 2.7. Take “PPA1 (effect direction: destabilized) (UniProt Q15181)”: the pEC50 turned out to be 2.85.

In the case of “PPA2 (effect direction: destabilized) (UniProt Q9H2U2)”, the pEC50 is under 2.7. Turning to “PPM1B (effect direction: destabilized) (UniProt O75688)”, the negative-log EC50 (pEC50) came out at 3.15.

On to “PPM1F (effect direction: stabilized) (UniProt P49593)”, for which the pEC50 is under 2.7. In the case of “PPM1G (effect direction: stabilized) (UniProt O15355)”, the pEC50 is under 2.7. Regarding “PPM1H (effect direction: destabilized) (UniProt Q9ULR3)”, the pEC50 is under 2.7. “PPP1R7 (effect direction: stabilized) (UniProt Q15435)”: the pEC50 is under 2.7. Under “PPP2CA (effect direction: destabilized) (UniProt P67775)” stands under 2.7. Regarding “PPP2R1A (effect direction: stabilized) (UniProt P30153)”, the pEC50 is under 2.7. “PPP3CA (effect direction: destabilized) (UniProt Q08209)”: the pEC50 stood at 3.09.
